In patent US20090306093A1, “METHOD FOR TREATING PATIENT HAVING BENIGN PROSTATE HYPERPLASIA” (KAOHSIUNG MEDICAL UNIVERSITY, priority 2008, published 2009):

Tests used:
[1] = test system: PZ-HPV-7 human prostatic epithelial cells; assay: Cell cycle distribution by flow cytometry; format: cell-based; details: 48 hours
Description: PZ-HPV-7 cells were incubated for 2 days with or without KMUP-1 (0.1-10 μM), after trypsinized for 10 minutes with 0.5% trypsin supplemented with 5.3 mM EDTA in HBBS. The cell suspension was then centrifuged at 200 g for 5 minutes at 4° C., resuspended in 1 mL ice-cold HBSS and fixed by the drop-wise addition of 2 mL of ice-cold methanol followed by continuously shaking. The processed cells were kept on ice for 30 minutes and then cells were collected by centrifugation at 90 g for 5 min and stained with propidium iodide (50 μg/mL, Sigma). RNase A (Promega, Madison, Wis.) was then added to a final concentration of 100 U/mL. Samples were stored in the dark for at least 30 minutes before an analysis on a Coulter Epics XL-MCL flow cytometer. […]

ROCK2 = assay: Western blot of phenylephrine-induced Rho kinase (ROCK2) expression in rat prostate; details: KMUP-1 10, 100 μM; Y-27632 10 μM; phenylephrine 10 μM
Description: (§1) In order to examine the expression of Rho kinase in prostate, the prostate strips were pre-incubated with phenylephrine (10 μM) for 30 minutes. After a pre-treatment of phenylephrine, KMUP-1 (10-100 μM) and Y-27632 (10 μM) were further incubated for 30 minutes. After the incubation time, the prostate were extracted with protein extraction reagent (Pierce Biotechnology, Inc., Rockford, Ill., USA.). The PZ-HPV-7 cells were incubated with and without KMUP-1 (0.1-10 μM) at 30 minutes, 8 and 24 hours. They were then washed rapidly with ice-cold PBS, incubated with protein extraction reagent, and scraped from the plates. The prostate tissues and cells were sonicated three times for 10 second each time and centrifuged at 13,000 rpm at 4° C. for 30 minutes. The protein concentrations of supernatants were determined, using bovine serum albumin as the standard. Tissue and cell extract protein were then boiled at a ratio of 4:1 with sample buffer (100 mM Tris, pH 6.8, 20% glycerol, 4% SDS, and 0.2% bromphenol blue). 40-60 μg protein was used in this experiment. Electrophoresis was performed using 10 or 12% SDS-polyacrylamide gel electrophoresis and then transferred to nitrocellulose membranes (Millipore Corporation, Billerica, Mass.). […] The intensity of the bands was measured by densitometry.

PDE5A = assay: Western blot of PDE5A expression in rat prostate; details: KMUP-1 10-100 μM
Description: (§2) Prostate strips were incubated with KMUP-1 (10-100 μM), sildenafil (100 μM) and zaprinast (100 μM) in 10 mL Tyrode solution aerated with 95% O2 and 5% CO2 for 1 hour. To examine the possible mechanisms of KMUP-1 action, the rat prostate were pretreated with ODQ (10 μM), SQ22536 (10 μM) and RP-8pCPT-cGMPs (10 μM) for 30 minutes prior to the addition of KMUP-1 (100 μM).
as §1, with “standard.” for “standard. Tissue and cell extract protein were then boiled at a ratio of 4:1 with sample buffer (100 mM Tris, pH 6.8, 20% glycerol, 4% SDS, and 0.2% bromphenol blue). 40-60 μg protein was used in this experiment. Electrophoresis was performed using 10 or 12% SDS-polyacrylamide gel electrophoresis and then transferred to nitrocellulose membranes (Millipore Corporation, Billerica, Mass.).”

a1-adrenoceptor = assay: Antagonism of phenylephrine-induced contraction in isolated rat prostate strips; details: against phenylephrine, KMUP-1 0.01-1 μM
Description: Smooth muscle contractility of isolated Wistar rat prostate was used to evaluate the possible involvement of a1-adrenoceptor antagonism by KMUP-1. KMUP-1 (0.01-1 μM) or vehicle was added to organ bath, containing the Tyrode solution, for 30 minutes after a concentration-response curve to phenylephrine (0.001-100 μM) was obtained.
Concentration-response curves of phenylephrine were dose-dependently parallel-shifted to the right by KMUP-1.

PKA = assay: Western blot of PKA expression in rat prostate
Description: as §2
as §1, with “standard.” for “standard. Tissue and cell extract protein were then boiled at a ratio of 4:1 with sample buffer (100 mM Tris, pH 6.8, 20% glycerol, 4% SDS, and 0.2% bromphenol blue). 40-60 μg protein was used in this experiment. Electrophoresis was performed using 10 or 12% SDS-polyacrylamide gel electrophoresis and then transferred to nitrocellulose membranes (Millipore Corporation, Billerica, Mass.).”

[2] = test system: PZ-HPV-7 human prostatic epithelial cells; assay: Trypan blue exclusion assay; format: cell-based; details: 1-100 μM, 24 and 48 hours
Description: PZ-HPV-7, a human prostate epithelial cell line derived from normal peripheral zone tissue and transfected with human papillomavirus type 18, was obtained from the American Type Culture Collection (ATCC). Cells were grown in K-SFM medium supplemented with 100 U/mL penicillin, […], streptomycin 5 ng/ml, EGF human recombinant and 50 µg/mL BPE in 75-cm^2 flasks at 37° C. in a humidified atmosphere of […]. The culture medium was renewed every 2 days and cells were sub-cultured every 6 days. For the experiments, cells were seeded in 24-well plates at a density of 1×10^4 cells/well. After 24 hours and 48 hours, when cells were 80% confluent, KMUP-1 (1-100 μM) was added to the 24-well plates. Cell proliferation was measured using MTT assay (3-[4,5-dimethylthiazol-2-yl]-2,5-diphenyl-tetrazolium bromide, Sigma). The trypan blue […] exclusion assay was performed to determine the proportion of living and dead cells in 24 hours and 48 hours after treatment. After 24 hours and 48 hours of treatment with KMUP-1 (1-100 μM), attached cells were collected by trypsinization. Cells were counted in a hemocytometer using equal volume of cell suspension and trypan blue solution (0.2% in PBS).

Cn1c(=O)c2c(ncn2CCN2CCN(c3ccccc3Cl)CC2)n(C)c1=O [KMUP-1, 7-[2-[4-(2-Chlorobenzene)piperazinyl]ethyl]-1,3-dimethyl xanthine]
increase of G0/G1 phase compared with vehicle control ([1]; 0.1 μM): 7±1.54% | increase of G0/G1 phase compared with vehicle control ([1]; 1 μM): 10±2.07% | increase of G0/G1 phase compared with vehicle control ([1]; 10 μM): 12.00±0.88% | phenylephrine-induced Rho kinase expression (ROCK2): protected against phenylephrine-induced Rho kinase expression | expression of PDE5A (PDE5A): mildly inhibits | apparent pA2 (a1-adrenoceptor): 7.82±0.33 | expression of PKA (PKA; 100 μM): significantly induces | expression of PKA (PKA; KMUP-1 100 μM with SQ22536 10 μM): reversed | PZ-HPV-7 cell growth, Trypan blue assay [2]: dose- and time-dependent inhibition
